# In patent US20070128217A1 (priority 2003, published 2007):
# Columns and labels:
# [1] = system: antibodies in sera from SARS patients (sera 1a, 1b, 2, 6, 37, 62, London, SARS-yellow, SARS-green); assay type: binding, human; parameters: Binding of serum 6 to linear peptides of protein X1 of SARS-CoV Urbani / Binding of serum 37 to linear peptides of protein X1 of SARS-CoV Urbani / Binding of serum 6 to looped/cyclic peptide (PEPSCAN-ELISA) / Binding of serum 37 to looped/cyclic peptide (PEPSCAN-ELISA) / Binding of serum 37 to looped/cyclic peptides of protein X1 of SARS-CoV Urbani / Binding of serum 6 to linear peptides of protein X2 / Binding of serum 37 to linear peptides of protein X2 / Binding of serum 37 to looped/cyclic peptides of protein X2 of SARS-CoV Urbani / Binding of serum 6 to linear peptides of protein M of SARS-CoV Urbani / Binding of serum 37 to linear peptides of protein M of SARS-CoV Urbani / Binding of serum 6 to looped/cyclic peptides of protein M of SARS-CoV Urbani / Binding of serum 37 to looped/cyclic peptides of protein M of SARS-CoV Urbani / Binding of serum 6 to linear peptides of protein X3 of SARS-CoV Urbani / Binding of serum 37 to linear peptides of protein X3 of SARS-CoV Urbani / Binding of serum 37 to looped/cyclic peptides of protein X3 of SARS-CoV Urbani / Binding of serum 6 to linear peptides of protein X4 of SARS-CoV Urbani / Binding of serum 37 to linear peptides of protein X4 of SARS-CoV Urbani / Binding of serum 37 to looped/cyclic peptides of protein X4 of SARS-CoV Urbani / Binding of serum 6 to linear peptides of protein X5 of SARS-CoV Urbani / Binding of serum 37 to linear peptides of protein X5 of SARS-CoV Urbani / Binding of serum 37 to looped/cyclic peptides of protein X5 of SARS-CoV Urbani / Binding of serum 6 to linear peptides of protein N of SARS-CoV Urbani / Binding of serum 37 to linear peptides of protein N of SARS-CoV Urbani / Binding of serum 6 to linear peptide (PEPSCAN-ELISA) / Binding of serum 1a to looped/cyclic peptides of protein N of SARS-CoV Urbani / Binding of serum 1b to looped/cyclic peptides of protein N of SARS-CoV Urbani / Binding of serum 2 to looped/cyclic peptides of protein N of SARS-CoV Urbani / Binding of serum 6 to looped/cyclic peptides of protein N of SARS-CoV Urbani / Binding of serum 37 to looped/cyclic peptides of protein N of SARS-CoV Urbani / Binding of serum 62 to looped/cyclic peptides of protein N of SARS-CoV Urbani / Binding of serum London to looped/cyclic peptides of protein N of SARS-CoV Urbani / Binding of serum SARS-green to looped/cyclic peptides of protein N of SARS-CoV Urbani: unit not given here
# [2] = system: control sera (pooled serum of ten healthy LUMC hospital workers; commercial negative donor pooled serum from the Dutch bloodbank); assay type: binding, human; parameters: Binding of Control serum LUMC to linear peptides / Binding of Control serum Blood-bank to linear peptides / Binding of Control serum LUMC to looped peptides / Binding of Control Serum Blood-Bank to Looped peptides / Binding of Control serum LUMC to linear peptides of the protein M of SARS-CoV Urbani / Binding of Control serum Blood-bank to linear peptides of the protein M of SARS-CoV Urbani / Binding of Control serum LUMC to looped peptides of the protein M of SARS-CoV Urbani / Binding of Control Serum Blood-Bank to Looped peptides of the protein M of SARS-CoV Urbani: unit not given here
# [3] = system: rabbit serum obtained by immunizing a rabbit with the SARS-CoV strain Frankfurt 1; assay type: binding; parameters: Binding of a rabbit serum to linear peptides / Binding of a rabbit serum to looped peptides / Rabbit serum linear peptides / Rabbit serum looped peptides / Binding of a rabbit serum to linear peptides of protein N of SARS-CoV Urbani (Rabbit serum linear peptides) / Binding of a rabbit serum to looped/cyclic peptides of protein N of SARS-CoV Urbani (Rabbit serum looped peptides): unit not given here
sequence,measurement,setting,value
LVIGAVIIRGHLRMA,Binding of serum 1a to linear peptides of protein M of SARS-CoV Urbani,[1],0.7
same,Binding of serum 1a to looped/cyclic peptides of protein M of SARS-CoV Urbani,[1],0.8
same,Binding of serum 1b to linear peptides of protein M of SARS-CoV Urbani,[1],0.5
same,Binding of serum 1b to looped/cyclic peptides of protein M of SARS-CoV Urbani,[1],0.4
same,Binding of serum 2 to linear peptides of protein M of SARS-CoV Urbani,[1],0.5
same,Binding of serum 2 to looped/cyclic peptides of protein M of SARS-CoV Urbani,[1],0.8
same,Binding of serum 6 to linear peptides of protein M of SARS-CoV Urbani,[1],0.6
same,Binding of serum 6 to looped/cyclic peptides of protein M of SARS-CoV Urbani,[1],1.2
same,Binding of serum 37 to linear peptides of protein M of SARS-CoV Urbani,[1],0.4
same,Binding of serum 37 to looped/cyclic peptides of protein M of SARS-CoV Urbani,[1],0.7
same,Binding of serum 62 to linear peptides of protein M of SARS-CoV Urbani,[1],0.4
same,Binding of serum 62 to looped/cyclic peptides of protein M of SARS-CoV Urbani,[1],0.8
same,Binding of serum London to linear peptides of protein M of SARS-CoV Urbani,[1],0.3
same,Binding of serum SARS-green to linear peptides of protein M of SARS-CoV Urbani,[1],0.4
same,Binding of serum SARS-green to looped/cyclic peptides of protein M of SARS-CoV Urbani,[1],0.3
same,Binding of serum SARS-yellow to linear peptides of protein M of SARS-CoV Urbani,[1],0.3
same,Binding of serum SARS-yellow to looped/cyclic peptides of protein M of SARS-CoV Urbani,[1],0.7
same,Binding of Control Serum Blood-Bank to Looped peptides of the protein M of SARS-CoV Urbani,[2],0.7
same,Binding of Control serum Blood-bank to linear peptides of the protein M of SARS-CoV Urbani,[2],0.6
same,Binding of Control serum LUMC to linear peptides of the protein M of SARS-CoV Urbani,[2],0.7
same,Binding of Control serum LUMC to looped peptides of the protein M of SARS-CoV Urbani,[2],0.7
same,Rabbit serum linear peptides,[3],0.2
same,Rabbit serum looped peptides,[3],1.4
YRINWVTGGIAIAMA,Binding of serum 1a to linear peptides of protein M of SARS-CoV Urbani,[1],0.7
same,Binding of serum 1a to looped/cyclic peptides of protein M of SARS-CoV Urbani,[1],0.6
same,Binding of serum 1b to linear peptides of protein M of SARS-CoV Urbani,[1],0.6
same,Binding of serum 1b to looped/cyclic peptides of protein M of SARS-CoV Urbani,[1],0.4
same,Binding of serum 2 to linear peptides of protein M of SARS-CoV Urbani,[1],0.7
same,Binding of serum 2 to looped/cyclic peptides of protein M of SARS-CoV Urbani,[1],0.6
same,Binding of serum 6 to linear peptides of protein M of SARS-CoV Urbani,[1],0.3
same,Binding of serum 6 to looped/cyclic peptides of protein M of SARS-CoV Urbani,[1],0.5
same,Binding of serum 37 to linear peptides of protein M of SARS-CoV Urbani,[1],0.8
same,Binding of serum 37 to looped/cyclic peptides of protein M of SARS-CoV Urbani,[1],0.5
same,Binding of serum 62 to linear peptides of protein M of SARS-CoV Urbani,[1],0.8
same,Binding of serum 62 to looped/cyclic peptides of protein M of SARS-CoV Urbani,[1],0.6
same,Binding of serum London to linear peptides of protein M of SARS-CoV Urbani,[1],0.3
same,Binding of serum London to looped/cyclic peptides of protein M of SARS-CoV Urbani,[1],0.2
same,Binding of serum SARS-green to linear peptides of protein M of SARS-CoV Urbani,[1],0.3
same,Binding of serum SARS-green to looped/cyclic peptides of protein M of SARS-CoV Urbani,[1],0.0
same,Binding of serum SARS-yellow to linear peptides of protein M of SARS-CoV Urbani,[1],0.1
same,Binding of serum SARS-yellow to looped/cyclic peptides of protein M of SARS-CoV Urbani,[1],0.8
same,Binding of Control Serum Blood-Bank to Looped peptides of the protein M of SARS-CoV Urbani,[2],0.7
same,Binding of Control serum Blood-bank to linear peptides of the protein M of SARS-CoV Urbani,[2],0.8
same,Binding of Control serum LUMC to linear peptides of the protein M of SARS-CoV Urbani,[2],0.6
same,Binding of Control serum LUMC to looped peptides of the protein M of SARS-CoV Urbani,[2],0.6
same,Rabbit serum linear peptides,[3],0.4
same,Rabbit serum looped peptides,[3],0.3
LEQWNLVIGFLFLAW,Binding of serum 1a to linear peptides of protein M of SARS-CoV Urbani,[1],0.6
same,Binding of serum 1a to looped/cyclic peptides of protein M of SARS-CoV Urbani,[1],0.6
same,Binding of serum 1b to linear peptides of protein M of SARS-CoV Urbani,[1],0.4
same,Binding of serum 1b to looped/cyclic peptides of protein M of SARS-CoV Urbani,[1],0.3
same,Binding of serum 2 to linear peptides of protein M of SARS-CoV Urbani,[1],0.6
same,Binding of serum 2 to looped/cyclic peptides of protein M of SARS-CoV Urbani,[1],0.7
same,Binding of serum 6 to linear peptides of protein M of SARS-CoV Urbani,[1],0.5
same,Binding of serum 6 to looped/cyclic peptides of protein M of SARS-CoV Urbani,[1],0.5
same,Binding of serum 37 to linear peptides of protein M of SARS-CoV Urbani,[1],0.6
same,Binding of serum 37 to looped/cyclic peptides of protein M of SARS-CoV Urbani,[1],0.7
same,Binding of serum 62 to linear peptides of protein M of SARS-CoV Urbani,[1],0.7
same,Binding of serum 62 to looped/cyclic peptides of protein M of SARS-CoV Urbani,[1],0.6
same,Binding of serum London to linear peptides of protein M of SARS-CoV Urbani,[1],0.4
same,Binding of serum London to looped/cyclic peptides of protein M of SARS-CoV Urbani,[1],0.2
same,Binding of serum SARS-green to linear peptides of protein M of SARS-CoV Urbani,[1],0.3
same,Binding of serum SARS-green to looped/cyclic peptides of protein M of SARS-CoV Urbani,[1],0.3
same,Binding of serum SARS-yellow to linear peptides of protein M of SARS-CoV Urbani,[1],0.1
same,Binding of serum SARS-yellow to looped/cyclic peptides of protein M of SARS-CoV Urbani,[1],0.6
same,Binding of Control Serum Blood-Bank to Looped peptides of the protein M of SARS-CoV Urbani,[2],0.6
same,Binding of Control serum Blood-bank to linear peptides of the protein M of SARS-CoV Urbani,[2],0.6
same,Binding of Control serum LUMC to linear peptides of the protein M of SARS-CoV Urbani,[2],0.3
same,Binding of Control serum LUMC to looped peptides of the protein M of SARS-CoV Urbani,[2],0.5
same,Rabbit serum linear peptides,[3],0.2
same,Rabbit serum looped peptides,[3],0.4
TVYHITVSQIQLSLL,Binding of serum 1a to linear peptides of protein X2,[1],0.6
same,Binding of serum 1a to looped/cyclic peptides of protein X2 of SARS-CoV Urbani,[1],0.4
same,Binding of serum 1b to linear peptides of protein X2,[1],0.5
same,Binding of serum 1b to looped/cyclic peptides of protein X2 of SARS-CoV Urbani,[1],0.4
same,Binding of serum 2 to linear peptides of protein X2,[1],0.5
same,Binding of serum 2 to looped/cyclic peptides of protein X2 of SARS-CoV Urbani,[1],0.3
same,Binding of serum 6 to linear peptides of protein X2,[1],0.4
same,Binding of serum 6 to looped/cyclic peptides of protein X2 of SARS-CoV Urbani,[1],0.2
same,Binding of serum 37 to linear peptides of protein X2,[1],0.6
same,Binding of serum 37 to looped/cyclic peptides of protein X2 of SARS-CoV Urbani,[1],0.4
same,Binding of serum 62 to linear peptides of protein X2,[1],0.4
same,Binding of serum 62 to looped/cyclic peptides of protein X2 of SARS-CoV Urbani,[1],0.5
same,Binding of serum London to linear peptides of protein X2,[1],0.4
same,Binding of serum London to looped/cyclic peptides of protein X2 of SARS-CoV Urbani,[1],0.2
same,Binding of serum SARS-green to linear peptides of protein X2,[1],0.1
same,Binding of serum SARS-green to looped/cyclic peptides of protein X2 of SARS-CoV Urbani,[1],0.2
same,Binding of serum SARS-yellow to linear peptides of protein X2,[1],0.7
same,Binding of serum SARS-yellow to looped/cyclic peptides of protein X2 of SARS-CoV Urbani,[1],0.3
same,Binding of Control Serum Blood-Bank to Looped peptides,[2],0.6
same,Binding of Control serum Blood-bank to linear peptides,[2],0.5
same,Binding of Control serum LUMC to linear peptides,[2],0.5
same,Binding of Control serum LUMC to looped peptides,[2],0.5
same,Binding of a rabbit serum to linear peptides,[3],0.7
same,Binding of a rabbit serum to looped peptides,[3],0.3
FVASFRLFARTRSMW,Binding of serum 1a to linear peptides of protein M of SARS-CoV Urbani,[1],0.9
same,Binding of serum 1b to linear peptides of protein M of SARS-CoV Urbani,[1],1.1
same,Binding of serum 2 to linear peptides of protein M of SARS-CoV Urbani,[1],0.7
same,Binding of serum 6 to linear peptides of protein M of SARS-CoV Urbani,[1],1.3
same,Binding of serum 37 to linear peptides of protein M of SARS-CoV Urbani,[1],0.6
same,Binding of serum 62 to linear peptides of protein M of SARS-CoV Urbani,[1],0.6
same,Binding of serum London to linear peptides of protein M of SARS-CoV Urbani,[1],0.9
same,Binding of serum SARS-green to linear peptides of protein M of SARS-CoV Urbani,[1],0.7
same,Binding of serum SARS-yellow to linear peptides of protein M of SARS-CoV Urbani,[1],0.3
same,"Recognition of the peptide by sera of SARS-CoV infected individuals, and form (linear, looped/cyclic) in which it is recognized",[1],recognized in looped/cyclic form
same,Binding of Control Serum Blood-Bank to Looped peptides of the protein M of SARS-CoV Urbani,[2],0.6
same,Binding of Control serum Blood-bank to linear peptides of the protein M of SARS-CoV Urbani,[2],0.9
same,Binding of Control serum LUMC to linear peptides of the protein M of SARS-CoV Urbani,[2],1.0
same,Binding of Control serum LUMC to looped peptides of the protein M of SARS-CoV Urbani,[2],0.7
same,Rabbit serum linear peptides,[3],0.2
same,Rabbit serum looped peptides,[3],0.3
